Experimental data taken from patent US7592326B2, “Method for stimulating the immune, inflammatory or neuroprotective response” (priority 2004, dated 2009).

System: Influenza virus B/Yamanashi/166/98
Test: Influenza vaccination model in mice, c-diGMP as adjuvant (proposed)
Format: in vivo
Conditions: two vaccinations 3 weeks apart

Structure (SMILES): Nc1nc(=O)c2ncn([C@@H]3OC4COP(=O)(O)O[C@H]5[C@@H](O)[C@H](n6cnc7c(=O)nc(N)[nH]c76)O[C@@H]5COP(=O)(O)OC4C3O)c2[nH]1 (stereo partly shown) [c-di-GMP, Bis(3′→5′)-cyclic diguanylic acid]
- survival after challenge: greater survival
